The values that follow come from patent US20090197910A1, “NOVEL VIRAL REPLICATION INHIBITORS” (KATHOLIEKE UNIVERSITEIT LEUVEN, priority 2006, published 2009).

For one data set, the system named is HCV Subgenomic Replicon. Nature of the data set: HCV-Huh-5-2 replicon cell assay (luciferase). The class given is cell-based, Hepatitis C virus. Conditions: for EC50: HCV subgenomic replicon in Huh-5-2 cells, 72 hours, luciferase, read-out: EC50 (concentration required to inhibit luciferase activity in the replicon system by 50%); for SI (selectivity index, ratio of CC50 to EC50): Huh-5-2 cells. Here is the method: (§1) Huh-5-2 cells [a cell line with a persistent HCV replicon I3891uc-ubi-neo/NS3-3′/5.1; replicon with firefly luciferase-ubiquitin-neomycin phosphotransferase fusion protein and EMCV-IRES driven NS3-5B HCV polyprotein] was cultured in RPMI medium (Gibco) supplemented with 10% fetal calf serum, 2 mM L-glutamine (Life Technologies), 1× non-essential amino acids (Life Technologies); 100 IU/ml penicillin and 100 ug/ml streptomycin and 250 ug/ml G418 (Geneticin, Life Technologies). Cells were seeded at a densitiy of 7000 cells per well in 96 well View Plate™ (Packard) in medium containing the same components as described above, except for G418. Cells were allowed to adhere and proliferate for 24 hr. At that time, culture medium was removed and serial dilutions of the test compounds were added in culture medium lacking G418. Interferon alfa 2a (500 IU) was included as a positive control. Plates were further incubated at 37° C. and 5% CO2 for 72 hours. Replication of the HCV replicon in Huh-5 cells results in luciferase activity in the cells. Luciferase activity is measured by adding 50 μl of 1× Glo-lysis buffer (Promega) for 15 minutes followed by 50 ul of the Steady-Glo Luciferase assay reagent (Promega). Luciferase activity is measured with a luminometer and the signal in each individual well is expressed as a percentage of the untreated cultures. Parallel cultures of Huh-5-2 cells, seeded at a density of 7000 cells/well of classical 96-well cell culture plates (Becton-Dickinson) are treated in a similar fashion except that no Glo-lysis buffer or Steady-Glo Luciferase reagent is added. Instead the density of the culture is measured by means of the MTS method (Promega).
For orientation: In antiviral work, replicon cells carry a viral genome segment that copies itself.

A further data set relates to Huh-5-2 cells. Nature of the data set: Cytostatic effect on Huh-5-2 cells (MTS method, parallel cultures). To be noted: 72 hours, read-out: CC50 (concentration required to inhibit the proliferation of exponentially growing Huh-5-2 cells by 50%). The class given is cell-based. Here is the method: as §1
Assay in data set [1]: as above
The class given is cell-based. Conditions: human, read-out: CC50 (concentration required to inhibit the proliferation of exponentially growing Huh-5-2 cells by 50%). Here is the method:
as §1

Where two headings read alike, the source gives them in different places.

As for `CC(=O)OCC1OC(n2c(SCc3cc4cc(Br)ccc4oc3=O)nc3cc(Cl)c(Cl)cc32)C(OC(C)=O)C(OC(C)=O)C1OC(C)=O` (centres unmarked) [Compound 7g, Acetic acid 3,5-diacetoxy-2-acctoxymethyl-6-[2-(6-bromo-2-oxo-2H-chromen-3-ylmethylsulfanyl)-5,6-dichloro-benzoimidazol-1-yl]-tetrahydro-pyran-4-yl ester], in the data set with HCV Subgenomic Replicon, the EC50 was 4.08 µM. Further, the CC50 in the data set on Huh-5-2 cells was greater than 64.8 µM.
As to `CC(=O)OCC1OC(n2c(SCc3cc4cc(Br)ccc4oc3=O)nc3ccccc32)CC(OC(C)=O)C1OC(C)=O` (centres unmarked) [Compound 22c, Acetic acid 3,4-diacetoxy-6-[2-(6-bromo-2-oxo-2H-chromen-3-ylmethylsulfanyl)-benzoimidazol-1-yl]-tetrahydro-pyran-2-ylmethyl ester], the EC50 in the data set with HCV Subgenomic Replicon (Hepatitis C virus) is 4.08 µM. Besides, in the data set with HCV Subgenomic Replicon, the “SI (selectivity index, ratio of CC50 to EC50)” value came to 3.95. Moreover, the CC50 at 72 h in data set [1] stood at 16.1 µM.
Regarding `COc1cccc2cc(CSc3nc4cnc(Cl)nc4[nH]3)c(=O)oc12` [Compound 16e, 3-(2-Chloro-9H-purin-8-ylsulfanylmethyl)-8-methoxy-chromen-2-one], the EC50 with HCV Subgenomic Replicon (Hepatitis C virus) is 19.6 µM. Moreover, the “SI (selectivity index, ratio of CC50 to EC50)” value in the data set on HCV Subgenomic Replicon is reported as 4.80. Also, the CC50 at 72 h in data set [1] turned out to be 94 µM.
For the compound `CC(=O)OCC1OC(n2c(SCc3cc4ccccc4oc3=O)nc3cc(Cl)c(Cl)cc32)C(OC(C)=O)C(OC(C)=O)C1OC(C)=O` (centres unmarked) [Compound 7d, Acetic acid 3,5-diacetoxy-2-acetoxymethyl-6-[5,6-dichloro-2-(2-oxo-2H-chromen-3-ylmethylsulfanyl)-benzoimidazol-1-yl]-tetrahydro-pyran-4-yl ester], the EC50 in the data set with HCV Subgenomic Replicon (Hepatitis C virus) was 3.14 µM. Also, the “SI (selectivity index, ratio of CC50 to EC50)” value in the data set with HCV Subgenomic Replicon is listed as 6.33. Moreover, in data set [1], the CC50 at 72 h is 19.8 µM.
Taken in the same sequence, the figures for `O=c1oc2ccc(Br)cc2cc1CSc1nc2cc(Cl)c(Cl)cc2[nH]1` [Compound 4k, 6-Bromo-3-(5,6-dichloro-1H-benzoimidazol-2-ylsulfanylmethyl)-chromen-2-one] were 2.29 µM, 19.3 and 44.1 µM.
Taken in the same sequence, the figures for `O=c1oc2ccc(Br)cc2cc1CSc1nc2ccccc2o1` [Compound 19c, 3-(Benzooxazol-2-ylsulfanylmethyl)-6-bromo-chromen-2-one] were 11.8 µM, 11.10 and 131 µM.
Consider `O=c1oc2ccc(Br)cc2cc1CSc1nc2cc(F)ccc2[nH]1` [Compound 4i, 6-Bromo-3-(5-fluoro-1H-benzoimidazol-2-ylsulfanylmethyl)-chromen-2-one], for which the EC50 with HCV Subgenomic Replicon (Hepatitis C virus) was found to be 3.36 µM. The “SI (selectivity index, ratio of CC50 to EC50)” value with HCV Subgenomic Replicon is 7.96. Moreover, the CC50 at 72 h in data set [1] was 26.7 µM.
